The values below come from ChEMBL document CHEMBL3525917, “Species difference in the mechanism of nonlinear pharmacokinetics of E2074, a novel sodium channel inhibitor, in rats, dogs, and monkeys” (Drug Metab Dispos, 2013).

SMILES strings stand for the structures.

The series concerns the target MDR1A (P-glycoprotein, ABCB1) (Mus musculus, UniProt P21447). In words: Activity of mouse MDR1A expressed in pig LLC-PK1 cells assessed as efflux ratio of permeability from basolateral to apical side to apical to basolateral side at 1 uM after 2 hrs. Type of series: ADME, cell-based.

MDR1A (P-glycoprotein, ABCB1), sequence (P21447 whole entry): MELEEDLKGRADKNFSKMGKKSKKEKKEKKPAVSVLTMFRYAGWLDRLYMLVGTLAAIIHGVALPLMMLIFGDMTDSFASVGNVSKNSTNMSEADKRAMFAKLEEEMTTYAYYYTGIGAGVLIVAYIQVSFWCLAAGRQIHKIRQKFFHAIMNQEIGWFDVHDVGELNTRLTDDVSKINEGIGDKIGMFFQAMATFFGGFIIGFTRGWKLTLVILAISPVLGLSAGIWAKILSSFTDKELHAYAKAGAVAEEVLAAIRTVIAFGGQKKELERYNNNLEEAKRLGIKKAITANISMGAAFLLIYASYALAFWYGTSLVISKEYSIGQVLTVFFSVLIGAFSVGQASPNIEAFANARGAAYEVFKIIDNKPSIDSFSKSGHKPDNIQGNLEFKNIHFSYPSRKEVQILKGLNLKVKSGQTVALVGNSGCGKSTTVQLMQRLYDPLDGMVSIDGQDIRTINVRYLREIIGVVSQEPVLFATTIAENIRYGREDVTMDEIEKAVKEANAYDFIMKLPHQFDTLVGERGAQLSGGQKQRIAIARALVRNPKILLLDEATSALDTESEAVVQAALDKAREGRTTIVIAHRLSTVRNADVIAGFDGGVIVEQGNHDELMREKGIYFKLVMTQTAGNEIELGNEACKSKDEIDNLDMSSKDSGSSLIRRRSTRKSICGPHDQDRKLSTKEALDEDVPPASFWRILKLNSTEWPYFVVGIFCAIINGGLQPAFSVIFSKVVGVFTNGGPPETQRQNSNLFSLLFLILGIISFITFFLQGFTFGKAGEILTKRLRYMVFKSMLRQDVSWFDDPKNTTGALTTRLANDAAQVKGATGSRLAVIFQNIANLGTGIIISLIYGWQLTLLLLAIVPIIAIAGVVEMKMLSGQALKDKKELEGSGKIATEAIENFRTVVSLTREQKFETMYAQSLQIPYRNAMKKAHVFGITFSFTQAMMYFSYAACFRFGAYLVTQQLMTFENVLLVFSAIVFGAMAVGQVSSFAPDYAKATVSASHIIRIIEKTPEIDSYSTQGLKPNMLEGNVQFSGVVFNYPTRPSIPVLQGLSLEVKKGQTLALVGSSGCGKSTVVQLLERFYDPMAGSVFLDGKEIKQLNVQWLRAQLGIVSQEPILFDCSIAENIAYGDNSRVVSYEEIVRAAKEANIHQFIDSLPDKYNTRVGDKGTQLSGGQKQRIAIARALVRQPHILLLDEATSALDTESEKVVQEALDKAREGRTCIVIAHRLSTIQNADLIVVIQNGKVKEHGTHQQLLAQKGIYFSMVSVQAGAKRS

Turning to `CN(C)C(=O)C(CCN1CCC(O)(c2ccc(Cl)cc2)CC1)(c1ccccc1)c1ccccc1.Cl` [LOPERAMIDE HYDROCHLORIDE], the efflux ratio (in general, the permeability from basolateral to apical divided by that in the opposite direction, in the common usage) at 2 h, 1 µM amounted to 9.
